In patent publication US7803930B2, “Antisense modulation of apolipoprotein B-expression” (Isis Pharmaceuticals, Inc., priority 2002, dated 2010):
In the oligonucleotide strings, read from the 5' end, every base follows the letter of its sugar. An asterisk marks phosphorothioate; unmarked linkages are phosphodiester. Other units and linkages are bracketed, terminal groups are in braces. A string of capitals states the bases alone. e = 2'-O-(2-methoxyethyl) (MOE); [5mC] = 5-methylcytosine; d = 2'-deoxy (DNA); r = 2'-OH (RNA)

Columns and labels:
Format in all cases: cell-based
[1] = tested on: human apolipoprotein B mRNA; experiment: Inhibition of apolipoprotein B mRNA by dsRNAs in HepG2 cells; conditions: 150 nM with 3.75 μg/mL LIPOFECTIN
Method: In accordance with the present invention, a series of nucleic acid duplexes comprising the antisense compounds of the present invention and their complements were designed to target apolipoprotein B and are shown in Table 42. All compounds in Table 42 are oligoribonucleotides 20 nucleotides in length with phosphodiester internucleoside linkages (backbones) throughout the compound. The compounds were prepared with blunt ends. […] These sequences are shown to contain uracil (U) but one of skill in the art will appreciate that uracil (U) is generally replaced by thymine (T) in DNA sequences. “Targer site” indicates the first (5′-most) nucleotide number on the particular target sequence to which the compound binds. A subset of the compounds in Table 42 are the RNA equivalents of DNA antisense oligonucleotides described herein, and, where applicable, this is noted by the ISIS # of the DNA oligonucleotide in the column “RNA equivalent of ISIS #”.
The dsRNA compounds in Table 42 were tested for their effects on human apolipoprotein mRNA in HepG2 cells. HepG2 cells were treated with 100 nM of dsRNA compounds mixed with 5 μg/mL LIPOFECTIN (Invitrogen Corporation, Carlsbad, Calif.) for a period of 16 hours. In the same experiment, HepG2 cells were also treated with 150 nM of subset of the antisense oligonucleotides described herein mixed with 3.75 μg/mL LIPOFECTIN; these compounds are listed in Table 43. Control oligonucleotides included ISIS 18078 ([…], SEQ ID NO: 888). ISIS 18078 is a chimeric oligonucleotide (“gapmer”) 20 nucleotides in length, composed of a central “gap” region consisting of 9 2′-deoxynucleotides, which is flanked on the 5′ and 3′ ends by a five-nucleotide “wing” and a six-nucleotide “wing”, respectively. The wings are composed of 2′-methoxyethyl (2′-MOE)nucleotides. The internucleoside (backbone) linkages are phosphorothioate (P═S) throughout the oligonucleotide. All cytidines are 5-methylcytidines. The duplex of ISIS 263188 ([…], SEQ ID NO: 889) and its complement was also used as a control. ISIS 263188 is an oligoribonucleotide 21 nucleotides in length with the 2 nucleotides on the 3′ end being oligodeoxyribonucleotides (TT) and with phosphodiester internucleoside linkages (backbones) throughout the compound.
Cells were treated for 4 hours, after which human apolipoprotein B mRNA expression was measured as described by examples herein. Results were normalized to untreated control cells, which were not treated with LIPOFECTIN or oligonucleotide.

[2] = tested on: human apolipoprotein B mRNA; experiment: Inhibition of human apolipoprotein B mRNA levels in HepG2 cells, quantitative real-time PCR; conditions: for % INHIB (inhibition of human apolipoprotein B mRNA levels): HepG2 cells treated with 150 nM of compound, averages from two experiments, quantitative real-time PCR
How it was run: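 HepG2 cells at 80% confluency were transfected with antisense oligonucleotide using 3.75 μg/mL Lipofectin in Opti-MEM for 4-7 h and harvested 16-24 h after treatment. Apolipoprotein B mRNA was measured by real-time RT-PCR and normalized to GAPDH or RiboGreen total RNA. Percent inhibition came from untreated-control standard curves.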

apolipoprotein B protein = experiment: Apolipoprotein B protein secreted from primary human hepatocytes, ELISA; conditions: for % Inhibition of apolipoprotein B protein secretion: 24 hours
Method: (§1) Oligonucleotides were introduced into cells through LIPOFECTIN-mediated transfection as described by other examples herein. Cells were harvested both 24 and 48 hours after treatment with oligonucleotide, and both RNA and protein were isolated. Additionally, the culture media from treated cells was collected for ELISA analysis of apolipoprotein B protein secretion.
Apolipoprotein secreted from into the cultured cell media was measured in the samples treated with 50 and 150 nM of oligonucleotide, using a target protein specific ELISA kit (ALerCHEK Inc., Portland, Me.). Each result represents 3 experiments.
(§2) An additional experiment was performed to test the effects of ISIS 271009 (SEQ ID NO: 319), ISIS 281625 (SEQ ID NO: 224) and ISIS 301027 (SEQ ID NO: 262) on human apolipoprotein B mRNA in human primary hepatocytes. Cells were cultured as described herein and treated with 5, 10, 50 or 150 nM of ISIS 271009, ISIS 281625 or ISIS 301027 for a period of 24 hours. The control oligonucleotides ISIS 13650 (SEQ ID NO: 806) and ISIS 113529 (SEQ ID NO: 859) were used at 50 or 150 nM. Human apolipoprotein B mRNA expression was evaluated by real-time PCR as described by other examples herein. Apolipoprotein B protein secreted into the cultured cell media was measured in the samples treated with 50 and 150 nM of oligonucleotide, using a target protein specific ELISA kit (ALerCHEK Inc., Portland, Me.).

[3] = tested on: human apolipoprotein B mRNA; experiment: Apolipoprotein B mRNA in primary human hepatocytes, real-time PCR
Method: In accordance with the present invention, antisense oligonucleotides targeted to human apolipoprotein B were tested in dose response studies in primary human hepatocytes. Pre-plated primary human hepatocytes were purchased from Invitro Technologies (Baltimore, Md.). Cells were cultured in high-glucose DMEM (Invitrogen Corporation, Carlsbad, Calif.) supplemented with 10% fetal bovine serum (Invitrogen Corporation, Carlsbad, Calif.), 100 units/mL and 100 μg/mL streptomycin (Invitrogen Corporation, Carlsbad, Calif.).
Human primary hepatocytes were treated with ISIS 301012 (SEQ ID NO: 247) at 10, 50, 150 or 300 nM. Untreated cells and cells treated with the scrambled control oligonucleotide ISIS 113529 ([…], SEQ ID NO: 859) served as two groups of control cells. ISIS 113529 is a chimeric oligonucleotide (“gapmer”) 20 nucleotides in length, composed of a central “gap” region consisting of ten 2′-deoxynucleotides, which is flanked on both sides (5′ and 3′ directions) by five-nucleotide “wings”. The wings are composed of 2′-methoxyethyl (2′-MOE)nucleotides. The internucleoside (backbone) linkages are phosphorothioate (P═S) throughout the oligonucleotide. All cytidines are 5-methylcytidines.
as §1
Apolipoprotein B mRNA expression was determined by real-time PCR of RNA samples as described by other examples herein. Each result represents 6 experiments.
as §2

[4] = tested on: Cynomolgous monkey apolipoprotein B mRNA; experiment: Apolipoprotein B mRNA in primary Cynomolgous monkey hepatocytes, real-time PCR; conditions: Cynomolgous monkey primary hepatocytes; 10, 50 and 150 nM, 24 hours
Method: Antisense inhibition by ISIS 301012 was compared to that of ISIS 326358, which is a perfect match to the Cynomolgous monkey apolipoprotein B sequence to which ISIS 301012 hybridizes. The compounds were analyzed for their effect on Cynomolgous monkey apolipoprotein B mRNA levels in primary Cynomolgous monkey hepatocytes purchased from In Vitro Technologies ([…].). Pre-plated primary Cynonomolgous monkey hepatocytes were purchased from InVitro Technologies (Baltimore, Md.). Cells were cultured in high-glucose DMEM (Invitrogen Corporation, Carlsbad, Calif.) supplemented with 10% fetal bovine serum (Invitrogen Corporation, Carlsbad, Calif.), 100 units/mL and 100 μg/mL streptomycin (Invitrogen Corporation, Carlsbad, Calif.).
Primary Cynomolgous monkey hepatocytes were treated with 10, 50, 150 or 300 nM of antisense oligonucleotides for 48 hours. ISIS 113529 (SEQ ID NO: 859) was used as a control oligonucleotide. Untreated cells also served as a control. Cynomolgous monkey apolipoprotein B mRNA levels were quantitated by real-time PCR using the human apolipoprotein B and GAPDH primers and probes described by other examples herein. The results, shown in Table 44, are the average of 6 experiments and are expressed as percent inhibition of apolipoprotein B mRNA normalized to untreated control cells.
In a further embodiment of the invention, antisense inhibition by ISIS 281625 was compared to that by ISIS 315089, which is a perfect match to the Cynomolgous monkey apolipoprotein B sequence to which ISIS 281625 hybridizes. Primary Cynomolgous monkey hepatocytes, cultured as described herein, were treated with 10, 50, 150 or 300 nM of ISIS 315089 or ISIS 281625 for 24 hours. Cells were treated with the control oligonucleotide ISIS 13650 (SEQ ID NO: 806) at 150 and 300 nM or ISIS 113529 (SEQ ID NO: 859) at 300 nM. Untreated cells also served as a control. Cynomolgous monkey apolipoprotein B mRNA levels in primary Cynomolgous monkey hepatocytes was quantitated using real-time PCR with human primers and probe as described by other examples herein. The results, shown in Table 46, are the average of 3 experiments and are expressed as percent inhibition of apolipoprotein B mRNA normalized to untreated control cells.
ISIS 271009 (SEQ ID NO: 319) and ISIS 301027 (SEQ ID NO: 262) were also tested for their effects on apolipoprotein B mRNA and protein expression in Cynomolgous primary hepatoctyes. Cells, cultured as described herein, were treated with 10, 50 and 150 nM of ISIS 271009 or ISIS 301027 for 24 hours. Cells were treated with the control oligonucleotide ISIS 113529 (SEQ ID NO: 859) at 150 nM. Untreated cells also served as a control. Cynomolgous monkey apolipoprotein B mRNA levels in primary Cynomolgous monkey hepatocytes was quantitated using real-time PCR with human primers and probe as described by other examples herein. The results, shown in Table 48, are the average of 2 experiments and are expressed as percent inhibition of apolipoprotein B mRNA normalized to untreated control cells.

[5] = tested on: human apolipoprotein(a) mRNA; experiment: Apolipoprotein(a) mRNA expression in primary human hepatocytes, real-time PCR; conditions: human primary hepatocytes; 5, 10, 50 or 150 nM, 24 hours
Method: Primary human hepatocytes (InVitro Technologies, Baltimore, Md.), cultured and transfected as described herein, were treated with 5, 10, 50 or 150 nM of ISIS 271009 (SEQ ID NO: 319), 281625 (SEQ ID NO: 224), 301012 (SEQ ID NO: 247) or 301027 (SEQ ID NO: 262). Cells were also treated with 50 or 150 nM of the control oligonucleotides ISIS 113529 (SEQ ID NO: 859) or ISIS 13650 (SEQ ID NO: 806). Untreated cells served as a control. Following 24 hours of oligonucleotide treatment, apolipoprotein(a) mRNA expression was measured by quantitative real-time PCR as described in other examples herein.
Probes and primers to human apolipoprotein(a) were designed to hybridize to a human apolipoprotein(a) sequence, using published sequence information (GenBank accession number NM_005577.1, incorporated herein as SEQ ID NO: 860). For human apolipoprotein(a) the PCR primers were: […]
forward primer: […] (SEQ ID NO: 861)
reverse primer: TGCGTCTGAGCATTGCGT (SEQ ID NO: 862) and the PCR probe was: FAM-[…]-TAMRA (SEQ ID NO: 863) where FAM is the fluorescent dye and TAMRA is the quencher dye.
Data are the average of three experiments and are expressed as percent inhibition relative to untreated controls.

| Substance | % Inhibition of apolipoprotein B mRNA [1] | % Inhibition of apolipoprotein B protein secretion (apolipoprotein B protein; 150 nM, "+" = increased) | % Inhibition of apolipoprotein B mRNA expression ([3]; 50 nM, 24 hours (Table 37)) | % Inhibition of apolipoprotein B mRNA expression ([3]; 150 nM, 24 hours (Table 37)) | further results |
| --- | --- | --- | --- | --- | --- |
| 18078 (antisense eG*eT*eG*e[5mC]*eG*d[5mC]*dG*d[5mC]*dG*dA*dG*d[5mC]*d[5mC]*d[5mC]*eG*eA*eA*eA*eT*e[5mC]) [compound 18078] | 13% | – | – | – | – |
| 263188 (rCrUrUrCrUrGrGrCrArUrCrCrGrGrUrUrUrArGdTdT; siRNA) [compound 263188] | 26% | – | – | – | – |
| 301014 (e[5mC]*eA*eG*e[5mC]*e[5mC]*d[5mC]*d[5mC]*dG*d[5mC]*dA*dG*dG*dT*d[5mC]*d[5mC]*e[5mC]*eG*eG*eT*eG; antisense) [compound 301014] | 88% | – | – | – | % INHIB (inhibition of human apolipoprotein B mRNA levels) [2]: 88%; % inhibition 37 nM ([2]; Table 19 dose response, HepG2 cells, 37 nM, normalized to untreated control): 75%; % inhibition 75 nM ([2]; Table 19 dose response, HepG2 cells, 75 nM, normalized to untreated control): 90%; % inhibition 150 nM ([2]; Table 19 dose response, HepG2 cells, 150 nM, normalized to untreated control): 96%; % inhibition 300 nM ([2]; Table 19 dose response, HepG2 cells, 300 nM, normalized to untreated control): 98% |
| 301021 (eG*eG*eT*e[5mC]*e[5mC]*dA*dT*d[5mC]*dG*d[5mC]*d[5mC]*dA*dG*d[5mC]*dT*eG*e[5mC]*eG*eG*eT; antisense) [compound 301021] | 67% | – | – | – | % INHIB (inhibition of human apolipoprotein B mRNA levels) [2]: 89% |
| CTCTTACTGTGCTGTGGACA (antisense e[5mC]*eT*e[5mC]*eT*eT*dA*d[5mC]*dT*dG*dT*dG*d[5mC]*dT*dG*dT*eG*eG*eA*e[5mC]*eA) [ISIS 113529, reference compound] | – | +1% | 0% | 14% | – |
| GCCTCAGTCTGCTTCGCGCC (2'-MOE gapmer, further chemistry not given here) [ISIS 271009] | – | 32% | 52% | 81% | % Inhibition of apolipoprotein B protein secretion (apolipoprotein B protein; 50 nM): 17%; secretion of apolipoprotein B protein from cells (ELISA) (apolipoprotein B protein; 50 and 150 nM): inhibit the secretion of apolipoprotein B protein from cells in a dose-dependent manner; inhibition of apolipoprotein B mRNA expression [4]: in a dose-dependent manner; % Inhibition of apolipoprotein B mRNA expression ([3]; 5 nM, 24 hours, "+" = expression increased): +4%; % Inhibition of apolipoprotein B mRNA expression ([3]; 10 nM, 24 hours (Table 37)): 5%; apolipoprotein B mRNA expression ([3]; 5, 10, 50 or 150 nM, 24 hours): inhibit apolipoprotein B mRNA expression in a dose-dependent manner; expression of apolipoprotein(a) mRNA [5]: inhibited apolipoprotein(a) expression at the highest dose |
| ISIS 13650: SEQ ID NO: 806, control oligonucleotide (antisense TCCCGCCTGTGACATGCATT; listed as DNA, chemistry not given here) [reference compound] | – | +18% | 38% | 26% | – |
